Test results taken from ChEMBL document CHEMBL1158307, “Hippospongins AF: New Furanoterpenes from a Southern Australian Marine Sponge Hippospongia sp” (J Nat Prod, 1996).
Activity calls are given as the source filed them. No cut-off for these calls is given here.

Test system: Staphylococcus aureus
Assay: Antibacterial activity against Staphylococcus aureus at 200 ug/disk by standard agar plate assay
Format: functional, organism-based

**Q.** CC(CCCc1coc(CC(C)C(=O)O)c1)Cc1cc(CCCc2ccoc2)co1 (stereo unspecified) was tested. Which Activity did it give?
**A.** Active
